Consider 45 compounds from patent publication US8058243B2, “Method for treating a brain cancer with ifenprodil” (HSC Research and Development Limited Partnership, priority 2006, dated 2011).

Structures can show the parent of a compound that is named as a salt. Where two headings read alike, the source gives them in different places.

The subject of this assay is murine neural precursor cells (neurosphere cultures). Kind of assay: HTS of LOPAC library against secondary neurosphere cultures, MTT proliferation assay at 3 μM, day 7 (z score, P value). Type of assay: cell-based, mouse.
[1] abbreviates: LOPAC library screen, 3 μM, MTT, neurosphere cultures.
Where [2] appears, read: primary LOPAC screen, 3 μM, MTT, neurosphere proliferation.
[3] abbreviates: LOPAC library screen at 3 μM, secondary neurosphere cultures, MTT.
[4] abbreviates: yes/no: significantly inhibited neurosphere proliferation in the primary screen.
Where [5] appears, read: LOPAC library screen, 3 μM, MTT, secondary neurosphere cultures, day 7.
Setting [6] is: LOPAC primary screen, neurosphere MTT proliferation, 3 μM, day 7.
Where [7] appears, read: yes/no: significantly inhibited neurosphere proliferation in primary screen.
[8] abbreviates: yes/no: significantly inhibited neurosphere proliferation (P<0.01) in the primary screen.
Setting [9] is: LOPAC library screen at 3 μM, MTT, secondary neurosphere cultures, screened in singlets.

As to `CNCC[C@@H](Oc1ccccc1C)c1ccccc1` [Tomoxetine], the Activity result was “no”. For the same compound, the “Z Score” value under setting [1] worked out at 0.1672. The compound further yielded a Z score under setting [2] of 0.167.

In the case of `CCCCNc1c(C(=O)OCC)c(C)nc2c1cnn2CC` [Tracazolate], the “Z Score” value under setting [3] is reported as −0.3151. The Z score under setting [2] is −0.315. For the same compound, under setting [4], the Activity entry was “no”.

Consider `COc1ccc(/C=C/C(=O)Nc2ccccc2C(=O)O)cc1OC` [Tranilast], for which the “Z Score” value under setting [1] came to 0.1736. Also, the Z score under setting [2] is on record as 0.174.

Turning to `N[C@@H]1C[C@H]1c1ccccc1` [Tranylcypromine hydrochloride], the “Z Score” value under setting [5] is −1.441. For the same compound, the Z score under setting [6] was −1.441. For the same compound, the Activity result under setting [7] is “no”.

Take `O=c1n(CCCN2CCN(c3cccc(Cl)c3)CC2)nc2ccccn12` [Trazodone hydrochloride]: under “168 h, 3 µM”, the “Z Score” value is listed as −2.644 and the Z score is −2.644. In addition, the Activity entry under setting [8] was “yes”.

Turning to `COc1cc2c(cc1OC)-c1c/c(=N\c3c(C)cc(C)cc3C)n(C)c(=O)n1CC2` [Trequinsin hydrochloride], under setting [3], the “Z Score” value was −0.9709. The Z score under setting [2] is given as −0.971. The Activity result under setting [4] is “no”.

`C[C@]12C=CC(=O)C=C1CC[C@H]1[C@@H]3C[C@@H](O)[C@](O)(C(=O)CO)[C@@]3(C)C[C@H](O)[C@@]12F` [Triamcinolone]: the Activity result was “no”. For the same compound, under setting [3], the “Z Score” value is recorded as −0.184. For the same compound, under setting [6], the Z score is −0.184.

In the case of `Nc1nc(N)c2nc(-c3ccccc3)c(N)nc2n1` [Triamterene], under setting [5], the “Z Score” value is listed as −4.642. The Z score under setting [6] was −4.642. For the same compound, the Activity entry (yes = significantly inhibited neurosphere proliferation (P<0.01) in the primary screen) is on record as “yes”.

For the compound `CN1CCN(CCCN2c3ccccc3Sc3ccc(C(F)(F)F)cc32)CC1` [Trifluoperazine dihydrochloride], under “168 h, 3 µM”, the “Z Score” value is −9.305 and the Z score is given as −9.305. The Activity result under setting [8] is on record as “yes”.

For the compound `O=C(CCCN1CCC(O)(c2cccc(C(F)(F)F)c2)CC1)c1ccc(F)cc1` [Trifluperidol hydrochloride], the “Z Score” value under setting [5] is −1.621. Further, under setting [2], the Z score was −1.621. Besides, the Activity entry under setting [4] is recorded as “no”.

Regarding `CN(C)CCCN1c2ccccc2Sc2ccc(C(F)(F)F)cc21` [Triflupromazine hydrochloride], the “Z Score” value under setting [5] is recorded as −1.82. This compound also came in with a Z score under setting [6] of −1.820. For the same compound, the Activity result under setting [8] is on record as “no”.

Regarding `Cl.OC(CCN1CCCCC1)(c1ccccc1)C1CCCCC1` (stereo not drawn) [Trihexylphenidyl hydrochloride], the Z score under setting [2] worked out at 1.215. Also, the Activity entry under setting [4] is listed as “no”.

Consider `OC(CCN1CCCCC1)(c1ccccc1)C1CCCCC1` (stereo not drawn) [Trihexyphenidyl hydrochloride], for which the “Z Score” value under setting [1] came out at 1.215.

For the compound `COc1cc(Cc2cnc(N)nc2N)cc(OC)c1OC` [Trimethoprim], under setting [5], the “Z Score” value is on record as −1.23. The compound further showed a Z score under setting [2] of −1.230. Further, the Activity result under setting [4] was “no”.

`CC(CN(C)C)CN1c2ccccc2CCc2ccccc21` (stereo not drawn) [Trimipramine maleate]: the “Z Score” value under setting [1] turned out to be 0.5677. In addition, the Z score under setting [2] is listed as 0.568. In addition, the Activity entry under setting [4] is recorded as “no”.

Turning to `Cc1ccc(/C(=C\CN2CCCC2)c2ccccn2)cc1` [Triprolidine hydrochloride], under setting [3], the “Z Score” value is given as −0.4061. Moreover, the Z score under setting [6] is listed as −0.406. Moreover, under setting [7], the Activity entry is “no”.

`Cl.NCCc1c[nH]c2ccccc12` [Tryptamine hydrochloride]: the “Z Score” value was found to be 1.245. Under setting [6], this compound yielded a Z score of 1.245. Further, the Activity result under setting [7] is “no”.

On to `CC(C)(C)NCC(O)c1ccccc1Cl` (stereo not drawn) [Tulobuterol hydrochloride], for which the “Z Score” value under setting [5] is recorded as −1.767. For the same compound, the Z score under setting [6] is −1.767. Under setting [7], the Activity entry is listed as “no”.

With `N#CC(C#N)=Cc1ccc(O)c(O)c1` [Tyrphostin 23], the “Z Score” value is −0.8396. The compound further returned a Z score under setting [6] of −0.840. Also, the Activity result under setting [7] is on record as “no”.

Take `N#CC(C#N)=Cc1cc(O)c(O)c(O)c1` [Tyrphostin 25]: the “Z Score” value is reported as −0.2591. The Z score under setting [6] was −0.259. In addition, under setting [7], the Activity result is reported as “no”.

For `N#C/C(=C\c1ccc(O)c(O)c1)C(N)=S` [Tyrphostin 47], the “Z Score” value came out at 0.1775. Moreover, under setting [2], the Z score is reported as 0.178. Further, under setting [4], the Activity entry is on record as “no”.

Regarding `N#CC(C#N)=C(N)/C(C#N)=C/c1cc(O)c(O)c(O)c1` [Tyrphostin 51], the “Z Score” value is −0.9177. Also, the Z score under setting [2] is reported as −0.918. For the same compound, the Activity entry under setting [4] was “no”.

As to `CC(C)(C)c1cc(C=C(C#N)C#N)cc(C(C)(C)C)c1O` [Tyrphostin A9], under setting [5], the “Z Score” value is −1.746. Under setting [2], this compound displayed a Z score of −1.746. Also, the Activity entry under setting [4] was “no”.

In the case of `COc1cc(C=C(C#N)C#N)cc(O)c1O` [Tyrphostin AG 34], under setting [5], the “Z Score” value is reported as −2.319. Also, under setting [6], the Z score is given as −2.319. Under setting [7], the Activity entry was “no”.

`N#CC(C#N)=C(N)/C(C#N)=C/c1ccc(O)cc1` [Tyrphostin AG 112]: the “Z Score” value under setting [1] was determined as 0.3333. Under setting [6], this compound displayed a Z score of 0.333. Besides, under setting [7], the Activity entry is “no”.

Turning to `N#CC(C#N)=Cc1ccc([N+](=O)[O-])c(O)c1` [Tyrphostin AG 126], the “Z Score” value under setting [3] is given as −0.4102. The compound further had a Z score under setting [2] of −0.410. The Activity result under setting [4] is listed as “no”.

Regarding `N#C/C(=C\c1ccc(O)c(O)c1)C(=O)NCc1ccccc1` [Tyrphostin AG 490], the “Z Score” value under setting [9] came out at 1.802. In addition, the Z score under setting [2] is 1.802. The Activity result under setting [4] is “no”.

For `N#C/C(=C\c1ccc(O)c(O)c1)C(=O)Nc1ccccc1` [Tyrphostin AG 494], the “Z Score” value is −2.275. Further, the Z score under setting [2] was −2.275. Moreover, under setting [4], the Activity entry is “no”.

For `C[C@@H](NC(=O)/C(C#N)=C/c1ccc(O)c(O)c1)c1ccccc1` [Tyrphostin AG 527], under setting [5], the “Z Score” value is −1.607. In addition, the Z score under setting [2] is on record as −1.607. Under setting [4], the Activity entry was “no”.

As to `N#C/C(=C\c1ccc(O)c(O)c1)C(=O)N1CCc2ccccc21` [Tyrphostin AG 528], the “Z Score” value under setting [3] is listed as −0.1481. The compound further had a Z score under setting [2] of −0.148. For the same compound, the Activity entry under setting [4] is given as “no”.

Take `N#C/C(=C\c1ccc(O)c(O)c1)C(=O)NCCCNC(=O)/C(C#N)=C/c1ccc(O)c(O)c1` [Tyrphostin AG 537]: the “Z Score” value was −1.249. Under setting [2], the Z score is −1.249. In addition, the Activity entry under setting [4] is listed as “no”.

In the case of `N#C/C(=C\c1ccc(O)c(O)c1)C(=O)c1ccc(O)c(O)c1` [Tyrphostin AG 538], the “Z Score” value is on record as −0.3955. For the same compound, the Z score under setting [2] was −0.395. Also, the Activity result under setting [4] is given as “no”.

As for `N#C/C(=C\c1ccc(O)c(O)c1)C(=O)NCCCc1ccccc1` [Tyrphostin AG 555], the “Z Score” value under setting [3] is listed as −0.6812. Under setting [2], this compound had a Z score of −0.681. Besides, the Activity result under setting [4] is given as “no”.

Turning to `C[C@H](NC(=O)/C(C#N)=C/c1ccc(O)c(O)c1)c1ccccc1` [Tyrphostin AG 835], the “Z Score” value is 2.23. The compound also showed a Z score under setting [2] of 2.230. For the same compound, under setting [4], the Activity entry was “no”.

`CC(C)(C)c1cc(/C=C(\C#N)C(N)=S)cc(C(C)(C)C)c1O` [Tyrphostin AG 879]: under setting [5], the “Z Score” value was −1.607. Further, the Z score under setting [2] is −1.607. For the same compound, under setting [4], the Activity entry was “no”.

Take `COc1cc2ncnc(Nc3cccc(Cl)c3)c2cc1OC` [Tyrphostin AG 1478]: under setting [9], the “Z Score” value is 1.87. For the same compound, the Z score under setting [6] is 1.870. Moreover, the Activity entry under setting [8] was “no”.

Take `N#CC(=C(/N)Sc1ccccc1N)/C(C#N)=C(/N)Sc1ccccc1N` [U0126]: the “Z Score” value amounted to 0.711. The same compound showed a Z score under setting [2] of 0.711. For the same compound, the Activity entry under setting [4] is listed as “no”.

In the case of `COc1ccc2c(c1)CC[C@@H]1[C@@H]2CC[C@]2(C)[C@@H](NCCCCCCN3C(=O)C=CC3=O)CC[C@@H]12` [U-73122], the Activity result under setting [4] is “no”.

Turning to `C[C@]12C=CC(=O)C=C1CC[C@@H]1C2=CC[C@]2(C)[C@@H](C(=O)CN3CCN(c4cc(N5CCCC5)nc(N5CCCC5)n4)CC3)CC[C@@H]12.O=C(O)/C=C\C(=O)O` [U-74389G maleate], the “Z Score” value under setting [5] is on record as −8.942. The compound further had a Z score under setting [6] of −8.942. For the same compound, the Activity result under setting [8] is reported as “yes”.

With `CCCCC/C=C\C[C@@H](O)/C=C/c1cccc(C[C@@H](O)CCCCO)n1` [U-75302], the “Z Score” value is given as −0.1722. The same compound gave a Z score under setting [2] of −0.172. Further, the Activity result under setting [4] is “no”.

As to `Cc1c(C)c2c(c(C)c1O)CCC(C)(CN1CCN(c3cc(N4CCCC4)nc(N4CCCC4)n3)CC1)O2.Cl.Cl` (stereo not drawn) [U-83836 dihydrochloride], the “Z Score” value came to 0.954. Also, the Z score under setting [6] was 0.954. In addition, the Activity entry under setting [8] is recorded as “no”.

As for `CCCN(CCC)C1Cc2cc(OC)c(OC)cc2C1.O=C(O)/C=C\C(=O)O` [U-99194A maleate], the “Z Score” value was 1.255.

Take `CCCN(CCC)C1Cc2cc(OC)c(OC)cc2C1.O=C(O)/C=C\C(=O)O` [U-99194A meleate]: the Z score under setting [6] was 1.255. The Activity entry under setting [8] is “no”.

For the compound `CC(C)Oc1cccnc1N(C)C1CCN(Cc2ccccc2)CC1.O=C(O)/C=C\C(=O)O` [U-101958 maleate], the “Z Score” value was −2.065. Besides, the Z score under setting [2] is −2.065. Moreover, the Activity result under setting [4] is recorded as “no”.

Consider `Brc1c(NC2=NCCN2)ccc2nccnc12` [UK 14,304], for which the Activity entry is recorded as “no”, the “Z Score” value was −0.2103 and the Z score is listed as −0.210.
